Biological target: Human PDE9 (PDE9A2) (Homo sapiens (Human), UniProt O76083)
Test: PDE9 IMAP fluorescence polarization (FP) inhibition assay
Format: biochemical
Settings: apparent inhibition constant; human PDE9A2, FAM-cGMP substrate 50 nM, room temperature
Procedure: The activity of the compounds in accordance with the present invention as PDE9 inhibitors may be readily determined without undue experimentation using a fluorescence polarization (FP) methodology that is well known in the art (Huang, W., et al., J. Biomol Screen, 2002, 7:215).
In a typical experiment the PDE9 inhibitory activity of the compounds of the present invention was determined in accordance with the following experimental method.
Human PDE9 (PDE9A2, GenBank Accession No. NM_001001567), full length with N-terminal GST tag, was purchased from BPS Bioscience. The fluorescence polarization assay for cyclic nucleotide phosphodiesterases was performed using an IMAP® FP kit supplied by Molecular Devices, Sunnyvale, CA (product #R8139). IMAP® technology has been applied previously to phosphodiesterase assays (Huang, W., et al., J. Biomol Screen, 2002, 7:215). Assays were performed at room temperature in 384-well microtiter plates with an incubation volume of 20.2 μL. Solutions of test compounds were prepared in DMSO and serially diluted with DMSO to yield 8 μL of each of 10 solutions differing by 3-fold in concentration, at 32 serial dilutions per plate. 100% inhibition is determined using a known PDE9 inhibitor, such as 1-(2-chlorophenyl)-6-[(2R)-3,3,3-trifluoro-2-methylpropyl]-1,5-dihydro-4H-pyrazolo[3,4-d]pyrimidine-4-one (BAY 73-6691) (Wunder et al, Mol. Pharmacol., 2005, 68 (6): 1775-81), (6-[(3S,4S)-4-methyl-1-(pyrimidin-2-ylmethyl) pyrrolidin-3-yl]-1-(tetrahydro-2H-pyran-4-yl)-1,5-dihydro-4H-pyrazolo[3,4-d]pyrimidin-4-one (PF-04447943) (Wager et al., ACS Chemical Neuroscience, 2010, 1:435-449). 0% of inhibition is determined by using DMSO (1% final concentrations). A Labcyte Echo 555 (Labcyte, Sunnyvale, CA) is used to dispense 200 nL from each well of the titration plate to the 384 well assay plate. Human PDE9A2 membrane preps were diluted to 1 ng/ml. […] PDE9 enzyme mix and compounds were mixed and incubated at room temperature for 30 min. Following which, FAMcGMP substrate was added, shaken and incubated for an additional 60 min at room temperature. The final concentration of human PDE9 membrane preparations were 0.5 ng/ml. The final concentration of FAM-cGMP was 50 nM. After the incubation period, the enzymatic reaction was stopped by addition of binding solution (IMAP-FP, Molecular Devices, comprised of 80% Solution A, 20% Solution B and a 1:600 dilution of binding reagent) to each well. The plates were shaken then incubated at room temperature for 1 h prior to determining the fluorescence polarization (mP) using a Perkin Elmer En Vision™ plate reader (Waltham, MA).
Fluorescence polarization (mP) was calculated from the parallel(S) and perpendicular (P) fluorescence of each sample well and the analogous values for the median control well, containing only substrate (So and Po), using the following equation: […]
Dose-inhibition profiles for each compound were characterized by fitting the mP data to a four-parameter equation given below. The apparent inhibition constant (KI), the maximum inhibition at the low plateau relative to “100% Inhibition Control” (Imax; e.g. 1=>same as this control), the minimum inhibition at the high plateau relative to the “0% Inhibition Control” (Imin, e.g. 0=>same as the no drug control) and the Hill slope (nH) are determined by a non-linear least squares fitting of the mP values as a function of dose of the compound using an in-house software based on the procedures described by Mosser et al., JALA, 2003, 8:54-63, using the following equation: […]
An apparent (Km) for FAM-labeled […] of 150 nM was determined in separate experiments through simultaneous variation of substrate and selected drug concentrations.

Chain of Human PDE9 (PDE9A2) (O76083 other isoform, or with tags, fused parts or gaps): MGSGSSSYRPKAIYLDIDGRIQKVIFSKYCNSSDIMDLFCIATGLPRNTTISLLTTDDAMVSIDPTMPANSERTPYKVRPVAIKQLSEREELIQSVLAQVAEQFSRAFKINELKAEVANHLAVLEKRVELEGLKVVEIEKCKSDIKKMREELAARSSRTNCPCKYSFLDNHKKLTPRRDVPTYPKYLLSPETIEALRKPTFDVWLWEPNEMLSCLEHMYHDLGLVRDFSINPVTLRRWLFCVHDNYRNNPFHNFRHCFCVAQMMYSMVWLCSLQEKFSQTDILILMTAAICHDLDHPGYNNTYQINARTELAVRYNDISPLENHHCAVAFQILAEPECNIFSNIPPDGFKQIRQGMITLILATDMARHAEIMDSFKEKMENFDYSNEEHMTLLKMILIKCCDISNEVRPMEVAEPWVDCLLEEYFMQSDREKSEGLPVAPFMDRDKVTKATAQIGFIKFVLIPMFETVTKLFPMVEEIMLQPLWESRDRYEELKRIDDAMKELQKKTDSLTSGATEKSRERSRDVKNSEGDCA

Ki [nM]	Compound
1.57	CCC(c1ncc(C(F)F)cn1)N(C)c1nc2c(c(C#N)nn2C(C)c2ccc(C(F)(F)F)nc2)c(=O)[nH]1 (single isomer, unassigned) [Example 20, 6-[1-[5-(difluoromethyl)pyrimidin-2-yl]propyl-methyl-amino]-4-oxo-1-[1-[6-(trifluoromethyl)-3-pyridyl]ethyl]-5H-pyrazolo[3,4-d]pyrimidine-3-carbonitrile]
15.2	CC(C)C(c1ncccn1)N(C)c1nc2c(c(C#N)nn2C(C)c2ccc(C(F)(F)F)nc2)c(=O)[nH]1 (single isomer, unassigned) [Example 21, 6-[methyl-(2-methyl-1-pyrimidin-2-yl-propyl)amino]-4-oxo-1-[1-[6-(trifluoromethyl)-3-pyridyl]ethyl]-5H-pyrazolo[3,4-d]pyrimidine-3-carbonitrile]
6.5	CC(C)C(c1ncccn1)N(C)c1nc2c(c(C#N)nn2C(C)c2ccc(C(F)(F)F)nc2)c(=O)[nH]1 (single isomer, unassigned) [Example 22, 6-[methyl-(2-methyl-1-pyrimidin-2-yl-propyl)amino]-4-oxo-1-[1-[6-(trifluoromethyl)-3-pyridyl]ethyl]-5H-pyrazolo[3,4-d]pyrimidine-3-carbonitrile]
0.6	CC(C)C(c1ncccn1)N(C)c1nc2c(c(C#N)nn2C(C)c2ccc(C(F)(F)F)nc2)c(=O)[nH]1 (single isomer, unassigned) [Example 23, 6-[methyl-(2-methyl-1-pyrimidin-2-yl-propyl)amino]-4-oxo-1-[1-[6-(trifluoromethyl)-3-pyridyl]ethyl]-5H-pyrazolo[3,4-d]pyrimidine-3-carbonitrile]
69.2	CC(C)C(c1ncccn1)N(C)c1nc2c(c(C#N)nn2C(C)c2ccc(C(F)(F)F)nc2)c(=O)[nH]1 (single isomer, unassigned) [Example 24, 6-[methyl-(2-methyl-1-pyrimidin-2-yl-propyl)amino]-4-oxo-1-[1-[6-(trifluoromethyl)-3-pyridyl]ethyl]-5H-pyrazolo[3,4-d]pyrimidine-3-carbonitrile]
4.08	CC(c1ccc(C(F)(F)F)nc1)n1nc(C#N)c2c(=O)[nH]c(N(C)C(c3ncccn3)C3CC3)nc21 (single isomer, unassigned) [Example 25, 6-[[cyclopropyl(pyrimidin-2-yl)methyl]-methyl-amino]-4-oxo-1-[1-[6-(trifluoromethyl)-3-pyridyl]ethyl]-5H-pyrazolo[3,4-d]pyrimidine-3-carbonitrile]
52.9	CC(c1ccc(C(F)(F)F)nc1)n1nc(C#N)c2c(=O)[nH]c(N(C)C(c3ncccn3)C3CC3)nc21 (single isomer, unassigned) [Example 26, 6-[[cyclopropyl(pyrimidin-2-yl)methyl]-methyl-amino]-4-oxo-1-[1-[6-(trifluoromethyl)-3-pyridyl]ethyl]-5H-pyrazolo[3,4-d]pyrimidine-3-carbonitrile]
6.67	CC(c1ccc(C(F)(F)F)nc1)n1nc(C#N)c2c(=O)[nH]c(N(C)C(c3ncccn3)C3CC3)nc21 (single isomer, unassigned) [Example 27, 6-[[cyclopropyl(pyrimidin-2-yl)methyl]-methyl-amino]-4-oxo-1-[1-[6-(trifluoromethyl)-3-pyridyl]ethyl]-5H-pyrazolo[3,4-d]pyrimidine-3-carbonitrile]
20.3	CC(c1ccc(C(F)(F)F)nc1)n1nc(C#N)c2c(=O)[nH]c(N(C)C(c3ncccn3)C3CC3)nc21 (single isomer, unassigned) [Example 28, 6-[[cyclopropyl(pyrimidin-2-yl)methyl]-methyl-amino]-4-oxo-1-[1-[6-(trifluoromethyl)-3-pyridyl]ethyl]-5H-pyrazolo[3,4-d]pyrimidine-3-carbonitrile]
8.96	CC(c1ccc(C(F)(F)F)nc1)n1nc(C#N)c2c(=O)[nH]c(N(C)C(c3ncccn3)C3CCC3)nc21 (single isomer, unassigned) [Example 29, 6-[[cyclobutyl(pyrimidin-2-yl)methyl]-methyl-amino]-4-oxo-1-[1-[6-(trifluoromethyl)-3-pyridyl]ethyl]-5H-pyrazolo[3,4-a]pyrimidine-3-carbonitrile]
16.4	CC(c1ccc(C(F)(F)F)nc1)n1nc(C#N)c2c(=O)[nH]c(N(C)C(c3ncccn3)C3CCC3)nc21 (single isomer, unassigned) [Example 30, 6-[[cyclobutyl(pyrimidin-2-yl)methyl]-methyl-amino]-4-oxo-1-[1-[6-(trifluoromethyl)-3-pyridyl]ethyl]-5H-pyrazolo[3,4-a]pyrimidine-3-carbonitrile]
1.2	CC(c1ccc(C(F)(F)F)nc1)n1nc(C#N)c2c(=O)[nH]c(N(C)C(c3ncccn3)C3CCC3)nc21 (single isomer, unassigned) [Example 31, 6-[[cyclobutyl(pyrimidin-2-yl)methyl]-methyl-amino]-4-oxo-1-[1-[6-(trifluoromethyl)-3-pyridyl]ethyl]-5H-pyrazolo[3,4-a]pyrimidine-3-carbonitrile]
0.59	CCC(c1ccc(F)cn1)N(C)c1nc2c(c(C#N)nn2C(C)c2ccc(C(F)(F)F)nc2)c(=O)[nH]1 (single isomer, unassigned) [Example 33, 6-[1-(5-fluoro-2-pyridyl)propyl-methyl-amino]-4-oxo-1-[1-[6-(trifluoromethyl)-3-pyridyl]ethyl]-5H-pyrazolo[3,4-d]pyrimidine-3-carbonitrile]
0.16	CCC(c1ccc(F)cn1)N(C)c1nc2c(c(C#N)nn2C(C)c2ccc(C(F)(F)F)nc2)c(=O)[nH]1 (single isomer, unassigned) [Example 34, 6-[1-(5-fluoro-2-pyridyl)propyl-methyl-amino]-4-oxo-1-[1-[6-(trifluoromethyl)-3-pyridyl]ethyl]-5H-pyrazolo[3,4-d]pyrimidine-3-carbonitrile]
7.12	CCC(c1ccc(F)cn1)N(C)c1nc2c(c(C#N)nn2C(C)c2ccc(C(F)(F)F)nc2)c(=O)[nH]1 (single isomer, unassigned) [Example 35, 6-[1-(5-fluoro-2-pyridyl)propyl-methyl-amino]-4-oxo-1-[1-[6-(trifluoromethyl)-3-pyridyl]ethyl]-5H-pyrazolo[3,4-d]pyrimidine-3-carbonitrile]
19.9	CCC(c1ccc(F)cn1)N(C)c1nc2c(c(C#N)nn2C(C)c2ccc(C(F)(F)F)nc2)c(=O)[nH]1 (single isomer, unassigned) [Example 36, 6-[1-(5-fluoro-2-pyridyl)propyl-methyl-amino]-4-oxo-1-[1-[6-(trifluoromethyl)-3-pyridyl]ethyl]-5H-pyrazolo[3,4-d]pyrimidine-3-carbonitrile]
2.67	CCC(c1ncc(F)cn1)N(C)c1nc2c(c(C#N)nn2C(C)C2CCOCC2)c(=O)[nH]1 (single isomer, unassigned) [Example 37, 6-[1-(5-fluoropyrimidin-2-yl)propyl-methyl-amino]-4-oxo-1-(1-tetrahydropyran-4-ylethyl)-5H-pyrazolo[3,4-d]pyrimidine-3-carbonitrile]
8.35	CCC(c1ncc(F)cn1)N(C)c1nc2c(c(C#N)nn2C(C)C2CCOCC2)c(=O)[nH]1 (single isomer, unassigned) [Example 38, 6-[1-(5-fluoropyrimidin-2-yl)propyl-methyl-amino]-4-oxo-1-(1-tetrahydropyran-4-ylethyl)-5H-pyrazolo[3,4-d]pyrimidine-3-carbonitrile]
0.17	CCC(c1ncc(F)cn1)N(C)c1nc2c(c(C#N)nn2C(C)C2CCOCC2)c(=O)[nH]1 (single isomer, unassigned) [Example 39, 6-[1-(5-fluoropyrimidin-2-yl)propyl-methyl-amino]-4-oxo-1-(1-tetrahydropyran-4-ylethyl)-5H-pyrazolo[3,4-d]pyrimidine-3-carbonitrile]

Source: US20260001888A1, “PYRAZOLOPYRIMIDINE PDE9 INHIBITORS” (Merck Sharp & Dohme LLC, priority 2018, published 2026)
